Data from ChEMBL document CHEMBL5154712, “Activators of the Anticipatory Unfolded Protein Response with Enhanced Selectivity for Estrogen Receptor Positive Breast Cancer” (J Med Chem, 2022).
Activity calls are given as the source filed them. The rule behind the calls is not given here.

What was measured:
MCF7 [1] = test: Anticancer activity against human MCF7 cells assessed as cell growth inhibition incubated for 24 hrs by alamar blue assay; format: functional, cell-based; conditions: MCF7, 24 h
MDA-MB-231 [2] = test: Anticancer activity against ERalpha negative human MDA-MB-231 cells assessed as cell growth inhibition incubated for 24 hrs by alamar blue assay; format: functional, cell-based; conditions: MDA-MB-231, 24 h
MDA-MB-231 [3] = test: Anticancer activity against ERalpha negative human MDA-MB-231 cells assessed as cell growth inhibition incubated for 72 hrs by alamar blue assay; format: functional, cell-based; conditions: MDA-MB-231, 72 h
HCT-116 [4] = test: Anticancer activity against ERalpha negative human HCT-116 cells assessed as cell growth inhibition incubated for 24 hrs by alamar blue assay; format: functional, cell-based; conditions: HCT-116, 24 h
HCT-116 [5] = test: Anticancer activity against ERalpha negative human HCT-116 cells assessed as cell growth inhibition incubated for 72 hrs by alamar blue assay; format: functional, cell-based; conditions: HCT-116, 72 h
HT-29 [6] = test: Anticancer activity against ERalpha negative human HT-29 cells assessed as cell growth inhibition incubated for 24 hrs by alamar blue assay; format: functional, cell-based; conditions: HT-29, 24 h
HT-29 [7] = test: Anticancer activity against ERalpha negative human HT-29 cells assessed as cell growth inhibition incubated for 72 hrs by alamar blue assay; format: functional, cell-based; conditions: HT-29, 72 h
[8] = Selectivity ratio of IC50 for human MDA-MB-231 cells to IC50 for human MCF7 cells; format: functional
[9] = Selectivity ratio of IC50 for human HCT-116 cells to IC50 for human MCF7 cells; format: functional
[10] = Selectivity ratio of IC50 for human HT-29 cells to IC50 for human MCF7 cells; format: functional
[11] = Stability of the compound in simulated gastric fluid assessed as compound remaining measured after 120 mins by LC-MS/MS; format: ADME; conditions: read-out: Stability
MCF7 [12] = test: Anticancer activity against human MCF7 cells assessed as reduction in cell viability incubated for 24 hrs in presence of 10% CD-FBS by alamar blue assay; format: functional, cell-based
MCF7 [13] = test: Anticancer activity against ERalpha positive human MCF7 cells assessed as cell growth inhibition incubated for 72 hrs by alamar blue assay; format: functional, cell-based; conditions: MCF7, 72 h
T47D [14] = test: Anticancer activity against human T47D cells harbouring ERalphaY537S mutant assessed as cell growth inhibition incubated for 24 hrs by alamar blue assay; format: functional, cell-based
T47D [15] = test: Anticancer activity against human T47D cells harbouring ERalphaD538G mutant assessed as cell growth inhibition incubated for 24 hrs by alamar blue assay; format: functional, cell-based
T47D [16] = test: Anticancer activity against ERalpha positive human T47D cells assessed as cell growth inhibition incubated for 24 hrs by alamar blue assay; format: functional, cell-based
MDA-MB-436 [17] = test: Anticancer activity against ERalpha negative human MDA-MB-436 cells assessed as cell growth inhibition incubated for 24 hrs by alamar blue assay; format: functional, cell-based; conditions: MDA-MB-436, 24 h
MDA-MB-231 [18] = test: Anticancer activity against ERalpha negative human MDA-MB-231 cells assessed as cell growth inhibition incubated for 168 hrs by alamar blue assay; format: functional, cell-based; conditions: MDA-MB-231, 168 h
MDA-MB-436 [19] = test: Anticancer activity against ERalpha negative human MDA-MB-436 cells assessed as cell growth inhibition incubated for 72 hrs by alamar blue assay; format: functional, cell-based; conditions: MDA-MB-436, 72 h
HCT-116 [20] = test: Induction of ER stress in human HCT-116 cells assessed as increase in phospho-EIF2alpha expression at 0.1 to 10 uM measured after 24 to 48 hrs by Western blot analysis; format: functional, cell-based; conditions: dose 0.1-10 µM, time 24-48 hrs
[21] = Cmax in CD-1 mouse at 20 mg/kg, iv by LC-MS/MS analysis; format: ADME, organism-based; parameters: dose 20 mg/kg, route iv; conditions: mouse, in vivo
[22] = Oral bioavailability in mouse; format: ADME, organism-based; conditions: in vivo
[23] = Half life in mouse; format: ADME, organism-based; conditions: in vivo
[24] = AUC in CD-1 mouse at 20 mg/kg, iv by LC-MS/MS analysis; format: ADME, organism-based; parameters: dose 20 mg/kg, route iv; conditions: mouse, in vivo
[25] = Half life in CD-1 mouse at 20 mg/kg, iv by LC-MS/MS analysis; format: ADME, organism-based; conditions: mouse, in vivo, iv, 20 mg/kg
[26] = MRT in CD-1 mouse at 20 mg/kg, iv by LC-MS/MS analysis; format: ADME, organism-based; conditions: mouse, in vivo, iv, 20 mg/kg
[27] = Volume of distribution at steady state in CD-1 mouse at 20 mg/kg, iv by LC-MS/MS analysis; format: ADME, organism-based; conditions: mouse, in vivo, iv, 20 mg/kg
[28] = Toxicity in po dosed CD-1 mouse assessed as maximum tolerated dose administered as single dose; format: organism-based; conditions: in vivo
[29] = Toxicity in iv dosed Sprague-Dawley rat assessed as maximum tolerated dose administered as single dose; format: organism-based; conditions: in vivo
MCF7 [30] = test: Antitumor activity against human MCF7 cells xenografted in athymic nude mouse assessed as reduction in tumor growth at 5 mg/kg, iv administered once a week for three doses administered for 14 days; format: functional, organism-based; conditions: time 14.0 day
[31] = Toxicity in athymic nude mouse xenografted with human MCF7 cells assessed as change in body weight at 5 mg/kg, iv administered once a week for three doses administered for 14 days; format: organism-based; conditions: in vivo, 336 h, time 14 day
MCF7 [32] = test: Anticancer activity against human MCF7 cells assessed as reduction in cell viability incubated for 24 hrs in presence of 10% CD-FBS and 17-beta-estradiol by alamar blue assay; format: functional, cell-based
HCT-116 [33] = test: Induction of ER stress in human HCT-116 cells assessed as increase in ATF6alpha-p90 cleavage at 0.1 to 10 uM measured after 24 to 48 hrs by Western blot analysis; format: functional, cell-based; conditions: dose 0.1-10 µM, time 24-48 hrs

Structure (SMILES): O=C1Nc2c(C(F)(F)F)cccc2C1(c1ccc(O)cc1)N1CCC(O)CC1 (centres undefined)
- IC50 (MCF7 [1]): > 1 µM

Structure (SMILES): O=C1Nc2c(C(F)(F)F)cccc2[C@@]1(c1ccc(O)cc1)N1CCC(F)(F)C1
- IC50 (MCF7 [1]): 0.017 µM
- IC50 (MDA-MB-231 [2]): 51 µM
- IC50 (MDA-MB-231 [3]): 32 µM
- IC50 (HCT-116 [4]): 45 µM
- IC50 (HCT-116 [5]): 20 µM
- IC50 (HT-29 [6]): 35 µM
- IC50 (HT-29 [7]): 30 µM
- Ratio IC50 [8]: 1500
- Ratio IC50 [9]: 900
- Ratio IC50 [10]: 1400
- remaining at 2 h [11]: 20%

Structure (SMILES): O=C1Nc2c(C(F)(F)F)cccc2[C@]1(c1ccc(O)cc1)N1CC(F)(F)C(F)(F)C1
- IC50 (MCF7 [1]): > 1 µM
- IC50 (MCF7 [12]; MCF7, 24 h): > 1 µM
- IC50 (MCF7 [13]): > 1 µM

Structure (SMILES): O=C1Nc2c(C(F)(F)F)cccc2[C@@]1(c1ccc(O)cc1)N1CCC(F)CC1
- IC50 (MCF7 [1]): > 1 µM
- IC50 (MCF7 [13]): 0.147 µM

Structure (SMILES): O=C1Nc2c(C(F)(F)F)cccc2C1(c1ccc(O)cc1)N1CCCCC1 (centres undefined)
- IC50 (MCF7 [1]): > 1 µM

Structure (SMILES): O=C1Nc2c(C(F)(F)F)cccc2[C@@]1(c1ccc(O)cc1)C1CCC(F)(F)CC1
- IC50 (MCF7 [1]): > 1 µM

Structure (SMILES): O=C1Nc2c(C(F)(F)F)cccc2[C@@]1(c1ccc(O)cc1)N1CC(F)(F)C(F)(F)C1
- IC50 (MCF7 [1]): 0.005 µM
- IC50 (MCF7 [13]): 0.004 µM
- IC50 (MDA-MB-231 [2]): 22 µM
- IC50 (MDA-MB-231 [3]): 14 µM
- IC50 (HCT-116 [4]): 24 µM
- IC50 (HCT-116 [5]): 15 µM
- IC50 (HT-29 [6]): 25 µM
- IC50 (HT-29 [7]): 15 µM
- Ratio IC50 [8]: 3500
- Ratio IC50 [9]: 3800
- Ratio IC50 [10]: 3800
- remaining at 2 h [11]: 27%

Structure (SMILES): Cc1cc(C2(c3ccc(OC(F)(F)F)cc3)C(=O)Nc3c(C(F)(F)F)cccc32)ccc1O (centres undefined)
- IC50 (MCF7 [1]): > 1 µM

Structure (SMILES): O=C1Nc2c(C(F)(F)F)cccc2C1(c1ccc(O)cc1)c1ccc(OC(F)(F)F)cc1 (centres undefined)
- IC50 (T47D [14]): 0.01 µM
- IC50 (MCF7 [1]): 0.02 µM
- IC50 (T47D [15]): 0.015 µM
- Activity (MCF7 [12]): Active
- IC50 (T47D [16]): 0.02 µM
- IC50 (MDA-MB-436 [17]): 22 µM
- IC50 (MDA-MB-231 [2]): 23 µM
- IC50 (MDA-MB-231 [3]): 8 µM
- IC50 (MDA-MB-231 [18]): 6 µM
- IC50 (MDA-MB-436 [19]): 14 µM
- IC50 (HCT-116 [4]): 11 µM
- IC50 (HCT-116 [5]): 0.26 µM
- IC50 (HT-29 [6]): 0.21 µM
- IC50 (HT-29 [7]): 0.25 µM
- Activity (HCT-116 [20]): Active
- Cmax [21]: 7700 ng/mL
- bioavailability [22]: 47%
- half-life [23]: > 2 h
- AUC [24]: 10100 ng·h/mL
- t1/2 [25]: 0.917 h
- MRT [26]: 5.1 h
- Vdss [27]: 10.1 L/kg
- MTD [28]: > 150 mg/kg
- MTD [29]: 10 mg/kg
- Activity (MCF7 [30]): Active
- Activity [31]: Non-Toxic
- Activity (MCF7 [32]): Active
- remaining at 2 h [11]: 93%
- Activity (HCT-116 [33]): Active

Structure (SMILES): O=C1Nc2c(C(F)(F)F)cccc2C1(c1ccc(OC(F)(F)F)cc1)c1ccc(O)c(F)c1 (centres undefined)
- IC50 (MCF7 [1]): 0.033 µM

Structure (SMILES): O=C1Nc2c(C(F)(F)F)cccc2[C@]1(c1ccc(OC(F)(F)F)cc1)c1ccc(O)c(O)c1
- IC50 (MCF7 [1]): 0.024 µM

Structure (SMILES): O=C1Nc2c(C(F)(F)F)cccc2C1(c1ccc(OC(F)(F)F)cc1)c1ccc(O)c(O)c1 (centres undefined)
- IC50 (MCF7 [1]): 0.049 µM
